Results reported in patent US20250375428A1, “CBL-B INHIBITORS AND ANTI-PD1/ANTI-PD-L1 FOR USE IN THE TREATMENT OF CANCER” (HOTSPOT THERAPEUTICS, INC., priority 2022, published 2025).

Columns and labels:
H22 tumor cells = assay: Subcutaneous H22 murine liver cancer model in female BALB/c mice; format: in vivo; parameters: Dunnett's multiple comparisons test Mean Diff.: unit: mm3; settings: for TGI (%): day 12; for Dunnett's multiple comparisons test Mean Diff.: tumor volume
Protocol: The objective of this pharmacology study was to evaluate the anti-tumor growth efficacy of Compound 85 with in combination with anti-PD1 antibody (BP0146) in the treatment of the subcutaneous H22 murine liver cancer model in female BALB/c mice. Compound 85 test particles were delivered via PO when the average tumor volume reached approximately 80 mm^3. Compound 85 was assessed at 4 different dose levels (2 mpk, 6 mpk, 10 mpk, and 20 mpk for QD) in combination with anti-PD1 antibody (10 mpk, BIW). Tumor volumes and body weight were measured three times per week after the initiation of treatment.
The H22 tumor cells were maintained in vitro with RPMI-1640 medium supplemented with 10% fetal bovine serum at 37° C. in an atmosphere of 5% CO2. Cells in the exponential growth phase were harvested and quantified by cell counter before tumor inoculation.
Each mouse was inoculated subcutaneously in the right front flank region with H22 tumor cells (1×10e6) in 0.1 ml of PBS for tumor development.
After tumor inoculation, the animals were checked daily for morbidity and mortality. During routine monitoring, the animals were checked for any effects of tumor growth and treatments on behavior such as mobility, food and water consumption, body weight gain/loss (Body weights were measured thrice per week after randomization), eye/hair matting and any other abnormalities. Mortality and observed clinical signs were recorded for individual animals in detail.
(§1) Tumor volumes were measured three times per week after randomization in two dimensions using a caliper, and the volume was expressed in mm3 using the formula: V=(L×W×W)/2, where V is tumor volume, L is tumor length (the longest tumor dimension) and W is tumor width (the longest tumor dimension perpendicular to L). Dosing, as well as tumor and body weight measurements, were conducted in a Laminar Flow Cabinet.
Tumor growth inhibition (TGI): TGI % is an indication of antitumor activity, expressed as: TGI (%)=100×(1−T/C). T and C are the mean tumor volume (or weight) of the treated and control groups on a given day.
The treatment was performed for 21 days and the study was terminated on day 20 post dosing initiation.

CT26 tumor cells = assay: Subcutaneous syngeneic colorectal cancer model CT26 in female BALB/c mice; format: in vivo, mouse; settings: Compound 29 30 mg/kg p.o. (QD or BID) in combination with anti-PD1 10 mg/kg i.p. BIW; FIG. 3
Protocol: The objective of this pharmacology study was to evaluate the anti-tumor growth efficacy of Compound 29 with in combination with anti-PD1 antibody (BP0146) or Isotype IgG2a (BP0089) in the treatment of the subcutaneous CT26 murine colorectal cancer model in female BALB/c mice.
Test particles were delivered via PO when the average tumor volume reached approximately 80 mm^3. Test articles was assessed at dose levels as described in Table 6. Tumor volumes and body weight were measured after the initiation of treatment.
The CT26 tumor cells were maintained in vitro with RPMI-1640 medium supplemented with 10% fetal bovine serum at 37° C. in an atmosphere of 5% CO^2 in air. The cells in exponential growth phase was harvested and quantitated by cell counter before tumor inoculation.
Each mouse was inoculated subcutaneously in the right lower flank region with CT26 tumor cells (5×10^5) in 0.1 ml of PBS for tumor development. […]
as §1, with “thrice” for “three times”, “mm^3” for “mm3”, “Dosing, as well as tumor and body weight measurements, were conducted in a Laminar Flow Cabinet.” left out
Tumor growth inhibition (TGI): TGI % is an indication of antitumor activity, and expressed as: TGI (%)=100×(1−T/C). […]

Structure (SMILES) | TGI (%) (H22 tumor cells; Compound 85 2 mpk QD p.o. + anti-PD1 10 mpk BIW vs. Vehicle + isotype) | TGI (%) (H22 tumor cells; Compound 85 6 mpk QD p.o. + anti-PD1 10 mpk BIW vs. Vehicle + isotype) | tumor inhibition compared with anti-PD1 alone (H22 tumor cells; Compound 85 10 mpk QD and 20 mpk QD + anti-PD1 combination) | TGI (%) (H22 tumor cells; Compound 85 10 mpk QD p.o. + anti-PD1 10 mpk BIW vs. Vehicle + isotype) | complete regression (H22 tumor cells; Compound 85 20 mpk QD and anti-PD1 combination group, day 20) | TGI (%) (H22 tumor cells; Compound 85 20 mpk QD p.o. + anti-PD1 10 mpk BIW vs. Vehicle + isotype) | benefit in combination with anti-PD1 (H22 tumor cells; Compound 85 + anti-PD1) | anti-tumor efficacy compared to single agent treatment (H22 tumor cells; Compound 85 at 2, 6, 10 and 20 mpk in combination with Anti-PD-1) | tolerability (H22 tumor cells; Compound 85 up to 20 mpk QD in combination with anti-PD1) | Dunnett's multiple comparisons test Mean Diff. (H22 tumor cells; Vehicle + isotype vs. Compound 85 2 mpk QD + anti-PD1) | Dunnett's multiple comparisons test Mean Diff. (H22 tumor cells; Vehicle + isotype vs. Compound 85 6 mpk QD + anti-PD1) | Dunnett's multiple comparisons test Mean Diff. (H22 tumor cells; Vehicle + isotype vs. Compound 85 10 mpk QD + anti-PD1) | Dunnett's multiple comparisons test Mean Diff. (H22 tumor cells; Vehicle + isotype vs. Compound 85 20 mpk QD + anti-PD1) | loss of average body weight (H22 tumor cells; day 2 of treatment, Compound 85 20 mpk QD and anti-PD1 combination) | tumor growth inhibition of CT26 tumors (CT26 tumor cells)
C[C@H]1CCCN(Cc2cc(C(F)(F)F)c3cn(-c4cccc([C@H](c5nncn5C)C5CCC5)c4)c(=O)n3c2)C1 [Compound 85] | 74.8 | 82.87 | statistically significant increase | 85.2 | One complete regression | 87.73 | additive or synergistic benefit | increased anti-tumor efficacy | No tolerability issue | 2158 | 2391 | 2458 | 2531 | less than 5% | 
C[C@H]1CCCN(Cc2cc(C(F)(F)F)c3cn(-c4cccc(C5(Cc6nncn6C)COC5)c4)c(=O)n3c2)C1 [Compound 29] |  |  |  |  |  |  |  |  |  |  |  |  |  |  | further enhanced
